Assay results from patent publication US20170240592A1, “GADD45BETA/MKK7 INHIBITOR FOR THE TREATMENT OF A RESISTANT HAEMATOLOGICAL MALIGNANCY” (IMPERIAL INNOVATIONS LIMITED, priority 2014, published 2017).

Legend:
[1] = thermodynamic solubility; format: physicochemical; settings: PBS pH 7.4, at 37° C. for 14 days
Description: (§4) In vitro pharmacokinetic assays were performed according to established, in-house protocols and included: plasma stability (human), thermodynamic solubility (PBS pH 7.4, at 37° C. for 14 days), microsomal stability (human), plasma protein binding (PPB; mouse and human), and distribution coefficient (Log D). In vivo pharmacokinetic analyses were also performed at Cyprotex according to established, in-house protocols. Briefly, the peptides were dissolved in PBS and administered by single intravenous injection to CD1 male mice at the dose of 10 mg/kg (25-30 g of total body weight; n=3 mice per time point per compound). Blood samples were collected in heparinized tubes at up to 7 time points after this injection (i.e. 0.08, 0.25, 0.5, 1, 2, 4 and 8 hr), and the plasma concentrations of the test peptide were determined at each time point by LC-MS/MS, using a five-point standard curve covering a peptide concentration range from 3 to 3,000 ng/mL. Standard curves were prepared using blank plasma matrices and treated in the same manner as the test samples. […] Values were calculated from the data of the peptide plasma concentration versus time curves using a non-compartmental model analysis, as described elsewhere (Groulx, 2006; Landaw and Di Stefano 3rd, 1982). […]

[2] = plasma stability (human); format: in vitro ADME
Description: as §4

[3] = tolerability in mice; format: in vivo
Source text: Values denote means±SD (n=3) or SEM (n=5), as indicated. MW, molecular weight.

[4] = plasmacytoma model, subcutaneous U266 myeloma xenografts; format: in vivo, NOD/SCID mice; settings: male, NOD/SCID (NOD.CB17-Prkdc^scid/IcrCrl), mouse, plasma, sc, 14.5 mg/kg/day; continual infusion via osmotic pumps, 14.5 mg/kg/d; SEM, n=16; read-out: plasma concentration at the steady state
Description: (§1) Values denote means±SEM (n=16). ***, p<0.001.
(§2) Mice were housed in the animal facilities at Hammersmith. All experiments were conducted under PPL 70/6874, after approval by the Imperial College Ethical Review Process and the Home Office. For the plasmacytoma model, NOD/SCID mice (NOD.CB17-Prkdc^scid/IcrCrl; Charles River) were injected subcutaneously with 1.0×10^7 U266 or KMS-11 multiple myeloma cells, and then randomized into treatment groups and treated by infusion, as shown. Tumour volumes were measured as described in Mauro et al., 2011. For the orthotopic multiple myeloma model, mice of the same strain were sub-lethally irradiated and then injected intravenously with 1.0×10^7 KMS-12-BM multiple myeloma cells, as described in Rabin et al., 2007). Mice were then randomized into treatment groups and treated by infusion for 8 weeks, as shown. Animals were monitored daily and euthanized on day 161 of treatment start or when they reached any of the end-points in the PPL. Additional details are provided in the Supplemental Experimental Procedures.
(§3) Mice were housed in the animal facilities at the Hammersmith Campus, Imperial College London, and experiments were conducted under the Home Office Authority (PPL 70/6874). The PPL was reviewed by the Imperial College Ethical Review Process (ERP) and the Home Office. For experiments in the subcutaneous xenograft models (FIGS. 16-17), 6 to 8-week old male NOD/SCID mice (NOD.CB17-Prkdc^scid/IcrCrl; Charles River) were injected intraperitoneally with anti-CD122 monoclonal antibody (TM-β1 clone; 200 μg/mouse) (Tanaka et al., 1991) and, 24 hr later, subcutaneously in the left flank with 1.0×10^7 U266 or KMS-11 human multiple myeloma cells resuspended in 200 μL of sterile PBS and Matrigel (1:1) (BD Biosciences), using a 1-mL Luer-Lok™ Tip syringe (BD Biosciences) with a 25-gauge needle (Bhutani et al., 2007). U266 and KMS-11 cells were harvested from exponentially growing cultures, washed once with serum-free medium, and resuspended in PBS immediately before injection (Bhutani et al., 2007). The anti-CD122 antibody was affinity purified using HiTrap Protein G HP columns (GE Healthcare), according to the manufacturer's instructions. One week after injection of the cells, when tumour volumes had reached approximately 100 mm^3 (U266 cells) or tumours had yet to be palpable (KMS-11 cells), mice were randomized into treatment groups (n=16 or n=4 per group, respectively; day 0) (Bhutani et al., 2007) and, then, treated by continual infusion of DTP3 at a dose of 14.5 mg/kg/d, yielding a plasma concentration of 0.70±0.09 μM (SEM; n=16), or PBS. Treatments were administered using Alzet osmotic pumps (model 1004; 28-day delivery at the rate of […]; Charles River), implanted surgically subcutaneously into the right flank of each mouse, according to the manufacturer's instructions (Gullapalli et al., 2012). For systemic administration, DTP3 was dissolved at the concentration of 147 mg/mL in PBS, and mice were euthanized on day 28 of the start of treatment with CO2. Tumour diameters were measured at the indicated times using a vernier calliper, and volumes were estimated from calliper measurements using the following equation: volume=A×B^2/2 (where A is the larger diameter, and B is the smaller diameter of the tumour) (Mauro et al., 2011). Results were reproduced at least twice. The plasma concentration of DTP3 was measured at the steady state by LC-MS/MS at Cyprotex, as described above.

[5] = tested on: subcutaneous U266 myeloma xenografts; test: as above; format: in vivo, NOD/SCID mice; settings: for effect on established subcutaneous myeloma xenografts (tumour volume): to day 28
Description: as §1, §2, §3

[6] = tested on: medullary KMS-12 multiple myeloma xenografts; format: in vivo, NOD/SCID mice; settings: 29 mg/kg/day intermittent infusion over 8 weeks; experimental end-point day 161
Description: as §2, with “Mice were then randomized into treatment groups and treated by infusion for 8 weeks, as shown.” left out, “Additional details are provided in the Supplemental Experimental Procedures.” left out
For experiments in the medullary xenograft model, 6 to 8-week old male NOD/SCID mice (NOD.CB17-Prkdc^scid/IcrCrl; Charles River) were sub-lethally irradiated (3.50 Gy) and, then, injected intraperitoneally with purified anti-CD122 monoclonal antibody (200 μg/mouse), as above. […] Animals were monitored daily for weight loss and other clinical signs of medullary disease, such as hind limb paralysis and behavioural changes, and euthanized with CO2 on day 161 of treatment start or when the disease severity reached any of the end-points stated in the PPL. […]

[7] = tested on: KMS-12 cells; test: [3H]thymidine incorporation assay, DTP3 and bortezomib as single agents or in combination, KMS-12
Description: Treatments with DTP3 were for 6 days; bortezomib was added to the cell cultures 48 hr prior to the measurement of cell viability. For the combination treatment, DTP3 was used at the concentrations of 3 nM in U266 cells and of 10 nM in KMS-12 cells, whereas bortezomib was used at increasing concentrations, as shown.
Viability data from the experiment shown in FIG. 12 were converted into values representing the fraction of cells affected (FA) equaling 0.5 in the drug-treated cultures compared with untreated cultures, and the interaction of DTP3 with bortezomib was analysed according to the Chou-Talalay method (Chou, 2006). Also shown are the drug concentrations giving the FA value of 0.5 and the description of the CI. Based on the Chou-Talalay equation (Chou, 2006), synergy is present when the CI is less than 1.0 (where values between 0.3 and 0.7 denote synergism, and values between 0.1 and 0.3 denote strong synergism); the combination is additive when CI equals 1.0, and antagonistic when it is more than 1.0 (Chou, 2006).
[^3H]Thymidine incorporation assays were performed using standard protocols (Griffiths and Sundaram, 2011). […] At 24, 72 or 144 hr, cells were incubated for an additional 16 hr with 0.037 MBq/well of [^3H]thymidine (Amersham), and then harvested onto glass fibre filter mats using a 96-well plate automated Tomtec cell harvester (Receptor Technologies) and analysed by liquid scintillation spectroscopy with a LKB Wallac Trilux Microbeta 3 b-counter (PerkinElmer). Values were expressed as the percentage of the counts per minute (cpm) measured in the treated cultures relative to the cpm measured in the respective untreated cultures. […]
The activities of DTP3 and bortezomib in the U266 and KMS-12 myeloma cell lines, both as single agents and in combination, were determined using [^3H]thymidine incorporation assays, performed as described above in “Cell Proliferation, Cell Death, and Apoptosis Assays”. The IC50 values of bortezomib as single agent were determined at 48 hr using 9 concentrations of drug, ranging from 0.1 to 1,000 nM.

[8] = 14.5 mg/kg/day continual infusion
[9] = 14.5 mg/kg/day, results not shown

CC(=O)N[C@H](Cc1ccc(O)cc1)C(=O)N[C@H](CCCNC(=N)N)C(=O)N[C@H](Cc1ccccc1)C(N)=O [DTP3, Acetyl-Tyr-Arg-Phe-NH2]
aqueous solubility [1]: high aqueous solubility
stability in human serum [2]: very high stability
tolerability after single administration ([3]; mice, single i.v. injection, s.c. injection or per os): excellent tolerability
in-vivo tolerability ([3]; mouse, in vivo): excellent in-vivo tolerability
tolerability after prolonged administration ([3]; osmotic pumps, 28 days, 14.5 mg/kg/day): excellent tolerability and lack of any apparent side effects
level at time molar [4]: ~1000 nM
side effects [5, 8]: absence of any apparent side effects
effect on established subcutaneous myeloma xenografts (tumour volume) [5, 8]: virtually eradicated
effect on established subcutaneous myeloma xenografts (tumour volume) ([5]; 14.5 mg/kg/day continual infusion, listed as DTP-3): dramatic shrinkage of the tumors
appearance of caspase-3 and PARP-1 proteolysis products in tumour [5, 9]: 3 days
appearance of phosphorylated JNK in tumour after onset of treatment [5, 9]: 24 h
median OS [6]: > 161 days
combination index (CI) with bortezomib ([7]; FA 0.5, DTP3 10 nM for 6 days, bortezomib last 48 hr, Chou-Talalay): 0.56
description of the CI ([7]; combination with bortezomib): synergism (values between 0.3 and 0.7 denote synergism)
